According to ChEMBL document CHEMBL4190162, “SAR and identification of 2-(quinolin-4-yloxy)acetamides as Mycobacterium tuberculosis cytochrome bc1 inhibitors” (Medchemcomm, 2016):
Converted amounts (≈) assume the structure as drawn. The source made the active and inactive calls. The rule behind the calls is not given here.

Tests used:
[1] = system: Mycobacterium tuberculosis; assay: Antimycobacterial activity against Mycobacterium tuberculosis H37Rv after 2 weeks by microplate alamar blue assay; assay type: functional; details: 336 h
[2] = system: Mycobacterium tuberculosis; assay: Antimycobacterial activity against Mycobacterium tuberculosis H37Rv measured after 1 week; assay type: functional; details: 168 h
[3] = system: Mycobacterium tuberculosis; assay: Antimycobacterial activity against Mycobacterium tuberculosis H37Rv measured after 2 weeks; assay type: functional; details: 336 h
[4] = system: Mycobacterium tuberculosis; assay: Antimycobacterial activity against Mycobacterium tuberculosis H37Rv BSG001; assay type: functional, organism-based
[5] = system: Mycobacterium tuberculosis H37Rv; assay: Inhibition of Mycobacterium tuberculosis H37Rv cytochrome bc1 oxidase assessed as reduction in ATP level measured up to 24 hrs under anaerobic condition
Escherichia coli = assay: Antibacterial activity against Escherichia coli 25922; assay type: functional, organism-based; details: ATCC 25922
Staphylococcus aureus = assay: Antibacterial activity against Staphylococcus aureus XEN36; assay type: functional, organism-based
[6] = system: Mycolicibacterium smegmatis; assay: Antibacterial activity against Mycobacterium smegmatis; assay type: functional, organism-based
[7] = system: Mycobacteroides abscessus; assay: Antibacterial activity against Mycobacterium abscessus; assay type: functional, organism-based
[8] = Cytotoxicity against human HepG2 cells after 24 to 48 hrs in presence of galactose by trypan blue dye-based hemocytometric method; assay type: cell-based
[9] = Cytotoxicity against human HepG2 cells after 24 to 48 hrs in presence of glucose by trypan blue dye-based hemocytometric method; assay type: cell-based

COc1ccc(OC)c(CCNC(=O)COc2cc(C)nc3ccc(OC)cc23)c1
MIC [1]: 60.9 µM (≈ 25 µg/mL)
MIC [2]: 122 µM (≈ 50 µg/mL)
MIC [3]: > 122 µM
Activity [4]: inactive
inhibition [5]: Active
Activity (Escherichia coli): inactive
Activity (Staphylococcus aureus): inactive
Activity [6]: inactive
Activity [7]: inactive
CC50 [8]: > 122 µM
CC50 [9]: > 122 µM

COc1ccc2nc(C)cc(OCC(=O)NCCCc3ccccc3)c2c1
MIC [1]: 25.8 µM (≈ 9.4 µg/mL)
MIC [2]: 68.6 µM (≈ 25 µg/mL)
MIC [3]: 68.6 µM (≈ 25 µg/mL)
Activity [4]: inactive
inhibition [5]: Active
Activity (Escherichia coli): inactive
Activity (Staphylococcus aureus): inactive
Activity [6]: inactive
Activity [7]: inactive
CC50 [8]: 50.7 µM
CC50 [9]: > 137 µM

COc1ccc2nc(C)cc(OCC(=O)Nc3ccccc3Cl)c2c1
MIC [1]: 0.56 µM (≈ 0.2 µg/mL)
MIC [2]: 26.4 µM (≈ 9.4 µg/mL)
MIC [3]: 53.2 µM (≈ 19 µg/mL)
Activity [4]: inactive
inhibition [5]: Active
Activity (Escherichia coli): inactive
Activity (Staphylococcus aureus): inactive
Activity [6]: inactive
Activity [7]: inactive
CC50 [8]: > 140 µM
CC50 [9]: > 140 µM

CCCCCC[C@H]1C(=O)O[C@H](C)[C@H](NC(=O)c2cccc(NC=O)c2O)C(=O)O[C@@H](C)[C@@H]1OC(=O)CC(C)C [ANTIMYCIN A]
CC50 [8]: 0.017 µM
CC50 [9]: > 50 µM

c1ccc(Cn2cnc3c(-c4ccco4)nccc32)cc1
MIC [1]: 1.56 µM (≈ 0.429 µg/mL)
MIC [2]: 12.5 µM (≈ 3.44 µg/mL)
MIC [3]: > 25 µM
inhibition [5]: Active
CC50 [8]: > 25 µM
CC50 [9]: > 25 µM

COc1ccc2nc(C)cc(OCC(=O)Nc3ccc(Br)cc3)c2c1
MIC [1]: 1.94 µM (≈ 0.778 µg/mL)
MIC [2]: > 125 µM
MIC [3]: > 125 µM
Activity [4]: inactive
inhibition [5]: Active
Activity (Escherichia coli): inactive
Activity (Staphylococcus aureus): inactive
Activity [6]: inactive
Activity [7]: inactive
CC50 [8]: > 125 µM
CC50 [9]: > 125 µM

COc1ccc2nc(C)cc(OCC(=O)NCCc3ccccc3)c2c1
MIC [1]: 54.2 µM (≈ 19 µg/mL)
MIC [2]: 143 µM (≈ 50 µg/mL)
MIC [3]: > 143 µM
Activity [4]: inactive
inhibition [5]: Active
Activity (Escherichia coli): inactive
Activity (Staphylococcus aureus): inactive
Activity [6]: inactive
Activity [7]: inactive
CC50 [8]: 83.9 µM
CC50 [9]: 61.4 µM

COc1ccc(NC(=O)COc2cc(C)nc3ccc(OC)cc23)cc1
MIC [1]: 1.11 µM (≈ 0.391 µg/mL)
MIC [2]: 2.21 µM (≈ 0.779 µg/mL)
MIC [3]: > 142 µM
Activity [4]: inactive
inhibition [5]: Active
Activity (Escherichia coli): inactive
Activity (Staphylococcus aureus): inactive
Activity [6]: inactive
Activity [7]: inactive
CC50 [8]: > 142 µM
CC50 [9]: > 142 µM

COc1ccccc1NC(=O)COc1cc(C)nc2ccccc12
MIC [1]: > 78 µM
MIC [2]: 38.8 µM (≈ 12.5 µg/mL)
MIC [3]: > 155 µM
Activity [4]: inactive
inhibition [5]: Active
Activity (Escherichia coli): inactive
Activity (Staphylococcus aureus): inactive
Activity [6]: inactive
Activity [7]: inactive
CC50 [8]: 8.64 µM
CC50 [9]: 43.9 µM

COc1cc(NC(=O)COc2cc(C)nc3ccc(OC)cc23)cc(OC)c1
MIC [1]: 24.6 µM (≈ 9.4 µg/mL)
MIC [2]: > 131 µM
MIC [3]: > 131 µM
Activity [4]: inactive
inhibition [5]: Active
Activity (Escherichia coli): inactive
Activity (Staphylococcus aureus): inactive
Activity [6]: inactive
Activity [7]: inactive
CC50 [8]: > 131 µM
CC50 [9]: > 131 µM

COc1nc2ccc(Br)cc2cc1[C@@H](c1ccccc1)[C@@](O)(CCN(C)C)c1cccc2ccccc12
inhibition [5]: Active

CC(=O)NC[C@H]1CN(c2ccc(N3CCOCC3)c(F)c2)C(=O)O1 [LINEZOLID]
MIC [1]: 2.3 µM (≈ 0.776 µg/mL)
MIC [2]: 2.3 µM (≈ 0.776 µg/mL)
MIC [3]: 2.3 µM (≈ 0.776 µg/mL)
inhibition [5]: inactive

Nc1ccc(C(=O)O)c(O)c1 [AMINOSALICYLIC ACID]
MIC [1]: 0.3 µM (≈ 0.0459 µg/mL)
MIC [2]: 0.3 µM (≈ 0.0459 µg/mL)
MIC [3]: 0.6 µM (≈ 0.0919 µg/mL)
